Data from article PMC11121837, “Impact of Nitric Oxide-Release Kinetics on Antifungal Activity” (Journal of Fungi, 2024).
Values after ≈ are worked out from the molar mass of the structure shown.

Key:
[1] = test system: C. neoformans (ATCC 208821); assay: Checkerboard assay of NO donors with antifungals; type: cell-based, Cryptococcus neoformans
Cryptococcus neoformans = assay: Susceptibility assay (MIC, broth microdilution, CLSI M27); type: cell-based; conditions: for MIC / NO dose at MIC: Cryptococcus neoformans; for MIC: 72 h; for NO dose at MIC: calculated NO dose at MIC
Candida albicans = assay: as above; type: cell-based; conditions: for MIC: 24 h; for NO dose at MIC: calculated NO dose at MIC
C. auris (ATCC MYA-5001) = assay: Checkerboard assay of NO donors with antifungals; type: cell-based, Candida auris
[2] = test system: C. albicans (ATCC MYA-2876); assay: Checkerboard assay of NO donors with antifungals; type: cell-based, Candida albicans
[3] = test system: Aspergillus fumigatus spores; assay: Susceptibility assay for sporulating fungi (MIC, EUCAST E.Def.9.4); type: cell-based; conditions: for Selectivity Index (IC50 AIR-100 / MIC): A. fumigatus ATCC 1022; for MIC / NO dose at MIC: ATCC1022, Aspergillus fumigatus ATCC 1022 spores; for NO dose at MIC: calculated NO dose at MIC
C. auris (MYA-5001) = type: cell-based, Candida auris
[4] = test system: C. neoformans (ATCC208821); type: cell-based, Cryptococcus neoformans
Candida auris = assay: Susceptibility assay (MIC, broth microdilution, CLSI M27); type: cell-based; conditions: for MIC / NO dose at MIC: Candidozyma auris; for MIC: 24 h; for NO dose at MIC: calculated NO dose at MIC
[5] = Characterization of NO release (chemiluminescence nitric oxide analyzer); type: physicochemical
[6] = test system: MatTek EpiAirway tissue (AIR-100); assay: cells; type: cell-based; conditions: Homo sapiens, 24 h, read-out: IC50 (concentration needed to inhibit tissue viability by 50%)
panel of fungal isolates = assay: Susceptibility assays, summary over the panel of fungal isolates; type: cell-based; conditions: IC50 AIR-100 / MIC
[7] = NO donor combined with 5-fluorocytosine
[8] = NO donor combined with amphotericin B
[9] = NO donor combined with butenafine
[10] = NO donor combined with caspofungin
[11] = NO donor combined with fluconazole
[12] = NO donor combined with miconazole
[13] = Cryptococcus neoformans ATCC MYA-4566
[14] = Cryptococcus neoformans ATCC MYA-4567
[15] = ATCC208821, 72 h, Cryptococcus neoformans ATCC 208821
[16] = ATCC208821, Cryptococcus neoformans ATCC 208821
[17] = ATCC14053, Candida albicans ATCC 14053
[18] = ATCC18804, Candida albicans ATCC 18804
[19] = phosphate-buffered saline 10 mM, pH 7.4, 37 °C

## NCCCN(CCCN)/[N+]([O-])=N/O [DPTA/NO, bis(3-aminopropyl) amine/NO]
[1]; [7]
  checkerboard classification: I (indifferent (I))
  ∑FIC: ≥ 1
[1]; [8]
  checkerboard classification: I (indifferent (I))
  ∑FIC: ≥ 1
[1]; [9]
  checkerboard classification: I (indifferent (I))
  ∑FIC: ≥ 1
[1]; [10]
  checkerboard classification: I (indifferent (I))
  ∑FIC: ≥ 1
[1]; [11]
  checkerboard classification: I (indifferent (I))
  ∑FIC: ≥ 1
[1]; [12]
  checkerboard classification: S (Synergistic (S))
  ∑FIC: 0.375
Cryptococcus neoformans; C. neoformans ATCC 208821
  Selectivity Index (IC50 AIR-100 / MIC): 18
Cryptococcus neoformans; C. neoformans ATCC MYA-4566
  Selectivity Index (IC50 AIR-100 / MIC): 28
Cryptococcus neoformans; C. neoformans ATCC MYA-4567
  Selectivity Index (IC50 AIR-100 / MIC): 28
Cryptococcus neoformans; [13]
  MIC: 625 mg/L (≈ 3270 µM)
  NO dose at MIC: 131 mg/L
Cryptococcus neoformans; [14]
  MIC: 625 mg/L (≈ 3270 µM)
  NO dose at MIC: 131 mg/L
Cryptococcus neoformans; [15]
  MIC: 1000 mg/L (≈ 5230 µM)
Cryptococcus neoformans; [16]
  NO dose at MIC: 210 mg/L
Candida albicans; [17]
  MIC: 625 mg/L (≈ 3270 µM)
  NO dose at MIC: 131 mg/L
Candida albicans; [18]
  MIC: 625 mg/L (≈ 3270 µM)
  NO dose at MIC: 131 mg/L
Candida albicans; C. albicans ATCC 14053
  Selectivity Index (IC50 AIR-100 / MIC): 28
Candida albicans; C. albicans ATCC 18804
  Selectivity Index (IC50 AIR-100 / MIC): 28
Candida albicans; C. albicans ATCC MYA-2876
  Selectivity Index (IC50 AIR-100 / MIC): 35
Candida albicans; Candida albicans ATCC MYA-2876
  MIC: 500 mg/L (≈ 2610 µM)
  NO dose at MIC: 105 mg/L
C. auris (ATCC MYA-5001); [7]
  checkerboard classification: I (indifferent (I))
  ∑FIC: ≥ 1
C. auris (ATCC MYA-5001); [8]
  checkerboard classification: I (indifferent (I))
  ∑FIC: ≥ 1
C. auris (ATCC MYA-5001); [9]
  checkerboard classification: I (indifferent (I))
  ∑FIC: ≥ 1
C. auris (ATCC MYA-5001); [10]
  checkerboard classification: I (indifferent (I))
  ∑FIC: ≥ 1
C. auris (ATCC MYA-5001); [11]
  checkerboard classification: I (indifferent (I))
  ∑FIC: ≥ 1
C. auris (ATCC MYA-5001); [12]
  checkerboard classification: A (additive (A))
  ∑FIC: 0.625
[2]; [7]
  checkerboard classification: I (indifferent (I))
  ∑FIC: ≥ 1
[2]; [8]
  checkerboard classification: I (indifferent (I))
  ∑FIC: ≥ 1
[2]; [9]
  checkerboard classification: I (indifferent (I))
  ∑FIC: ≥ 1
[2]; [10]
  checkerboard classification: I (indifferent (I))
  ∑FIC: ≥ 1
[2]; [11]
  checkerboard classification: I (indifferent (I))
  ∑FIC: ≥ 1
[2]; [12]
  checkerboard classification: I (indifferent (I))
  ∑FIC: ≥ 1
[3]
  Selectivity Index (IC50 AIR-100 / MIC): 14
  MIC: 1250 mg/L (≈ 6540 µM)
  NO dose at MIC: 262 mg/L
C. auris (MYA-5001)
  change in MIC or MFCs after serial passaging: no changes
[4]
  outcome of passaging at sub-MIC dose: yeast death after the second passage
Candida auris; C. auris ATCC MYA-5000
  Selectivity Index (IC50 AIR-100 / MIC): 28
Candida auris; C. auris ATCC MYA-5001
  Selectivity Index (IC50 AIR-100 / MIC): 35
Candida auris; C. auris ATCC MYA-5003
  Selectivity Index (IC50 AIR-100 / MIC): 57
Candida auris; Candida auris ATCC MYA-5000
  MIC: 625 mg/L (≈ 3270 µM)
  NO dose at MIC: 131 mg/L
Candida auris; Candida auris ATCC MYA-5001
  MIC: 500 mg/L (≈ 2610 µM)
  NO dose at MIC: 105 mg/L
Candida auris; Candida auris ATCC MYA-5003
  MIC: 310 mg/L (≈ 1620 µM)
  NO dose at MIC: 65.3 mg/L
[5]; pH 7.4
  [NO]t, total NO released over full duration: 7.0 ± 1.1 µmol/mg
[5]; [19]
  [NO]max, maximum instantaneous NO concentration: 2867 ± 211 ppb mg^−1
  td, duration of NO release: 31.0 ± 3.3 h
[6]
  IC50: 18000 mg/L (≈ 94100 µM)
Panel of fungal isolates
  selectivity indices, all strains: below 100

## NCCCNCCCCN(CCCN)/[N+]([O-])=N/O [SPER/NO, spermine/NO]
[1]; [7]
  checkerboard classification: I (indifferent (I))
  ∑FIC: ≥ 1
[1]; [8]
  checkerboard classification: I (indifferent (I))
  ∑FIC: ≥ 1
[1]; [9]
  checkerboard classification: A (additive (A))
  ∑FIC: 0.562
[1]; [10]
  checkerboard classification: I (indifferent (I))
  ∑FIC: ≥ 1
[1]; [11]
  checkerboard classification: I (indifferent (I))
  ∑FIC: ≥ 1
[1]; [12]
  checkerboard classification: S (Synergistic (S))
  ∑FIC: 0.500
Cryptococcus neoformans; C. neoformans ATCC 208821
  Selectivity Index (IC50 AIR-100 / MIC): 41
Cryptococcus neoformans; C. neoformans ATCC MYA-4566
  Selectivity Index (IC50 AIR-100 / MIC): 1079
Cryptococcus neoformans; C. neoformans ATCC MYA-4567
  Selectivity Index (IC50 AIR-100 / MIC): 263
Cryptococcus neoformans; [13]
  MIC: 19 mg/L (≈ 72.4 µM)
  NO dose at MIC: 3.08 mg/L
Cryptococcus neoformans; [14]
  MIC: 78 mg/L (≈ 297 µM)
  NO dose at MIC: 12 mg/L
Cryptococcus neoformans; [15]
  MIC: 500 mg/L (≈ 1910 µM)
Cryptococcus neoformans; [16]
  NO dose at MIC: 76.8 mg/L
Candida albicans; [17]
  MIC: 250 mg/L (≈ 953 µM)
  NO dose at MIC: 38.6 mg/L
Candida albicans; [18]
  MIC: 150 mg/L (≈ 572 µM)
  NO dose at MIC: 23.1 mg/L
Candida albicans; C. albicans ATCC 14053
  Selectivity Index (IC50 AIR-100 / MIC): 82
Candida albicans; C. albicans ATCC 18804
  Selectivity Index (IC50 AIR-100 / MIC): 137
Candida albicans; C. albicans ATCC MYA-2876
  Selectivity Index (IC50 AIR-100 / MIC): 164
Candida albicans; Candida albicans ATCC MYA-2876
  MIC: 125 mg/L (≈ 476 µM)
  NO dose at MIC: 19.2 mg/L
C. auris (ATCC MYA-5001); [7]
  checkerboard classification: I (indifferent (I))
  ∑FIC: ≥ 1
C. auris (ATCC MYA-5001); [8]
  checkerboard classification: I (indifferent (I))
  ∑FIC: ≥ 1
C. auris (ATCC MYA-5001); [9]
  checkerboard classification: I (indifferent (I))
  ∑FIC: ≥ 1
C. auris (ATCC MYA-5001); [10]
  checkerboard classification: I (indifferent (I))
  ∑FIC: ≥ 1
C. auris (ATCC MYA-5001); [11]
  checkerboard classification: I (indifferent (I))
  ∑FIC: ≥ 1
C. auris (ATCC MYA-5001); [12]
  checkerboard classification: S (Synergistic (S))
  ∑FIC: 0.375
[2]; [7]
  checkerboard classification: I (indifferent (I))
  ∑FIC: ≥ 1
[2]; [8]
  checkerboard classification: I (indifferent (I))
  ∑FIC: ≥ 1
[2]; [9]
  checkerboard classification: I (indifferent (I))
  ∑FIC: ≥ 1
[2]; [10]
  checkerboard classification: I (indifferent (I))
  ∑FIC: ≥ 1
[2]; [11]
  checkerboard classification: I (indifferent (I))
  ∑FIC: ≥ 1
[2]; [12]
  checkerboard classification: S (Synergistic (S))
  ∑FIC: 0.265
[3]
  Selectivity Index (IC50 AIR-100 / MIC): 293
  MIC: 70 mg/L (≈ 267 µM)
  NO dose at MIC: 10.7 mg/L
C. auris (MYA-5001)
  change in MIC or MFCs after serial passaging: no changes
[4]
  outcome of passaging at sub-MIC dose: yeast death after the second passage
Candida auris; C. auris ATCC MYA-5000
  Selectivity Index (IC50 AIR-100 / MIC): 164
Candida auris; C. auris ATCC MYA-5001
  Selectivity Index (IC50 AIR-100 / MIC): 82
Candida auris; C. auris ATCC MYA-5003
  Selectivity Index (IC50 AIR-100 / MIC): 164
Candida auris; Candida auris ATCC MYA-5000
  MIC: 125 mg/L (≈ 476 µM)
  NO dose at MIC: 19.2 mg/L
Candida auris; Candida auris ATCC MYA-5001
  MIC: 250 mg/L (≈ 953 µM)
  NO dose at MIC: 38.6 mg/L
Candida auris; Candida auris ATCC MYA-5003
  MIC: 125 mg/L (≈ 476 µM)
  NO dose at MIC: 19.2 mg/L
[5]; [19]
  [NO]max, maximum instantaneous NO concentration: 7535 ± 222 ppb mg^−1
  [NO]t, total NO released over full duration: 5.1 ± 0.2 µmol/mg
  td, duration of NO release: 14.8 ± 2.9 h
[6]
  IC50: 20000 mg/L (≈ 76200 µM)
